# Assay results taken from patent US20140023647A1, “METHOD FOR TREATING SOLID TUMORS” (BELLICUM PHARMACEUTICALS, INC., priority 2010, published 2014).
# Like-named read-outs stand apart in the source and are kept apart here.
# B1: ALD-518: humanized anti-IL-6 monoclonal antibody (antibody, chains of the INN, looked up, V domains shown)
# VH: EVQLVESGGGLVQPGGSLRLSCAASGFSLSNYYVTWVRQAPGKGLEWVGIIYGSDETAYATSAIGRFTISRDNSKNTLYLQMNSLRAEDTAVYYCARDDSSDWDAKFNLWGQGTLVTVSS
# VL: AIQMTQSPSSLSASVGDRVTITCQASQSINNELSWYQQKPGKAPKLLIYRASTLASGVPSRFSGSGSGTDFTLTISSLQPDDFATYYCQQGYSLRNIDNAFGGGTKVEIK
# How the values were obtained:
# [1] = test system: NFkappaB; experiment: NFkappaB reporter assay, iCD40 constructs in Jurkat T cells with titrated AP20187; type: cell-based, human
# Protocol: Reporters assays were conducted in human Jurkat-TAg (T cells) or 293 (kidney embryonic epithelial) cells or murine RAW264.7 (macrophage) cells. Jurkat-TAg cells (107) in log-phase growth were electroporated ([…], 250 V) with […] expression plasmid and […] of reporter plasmid NF-kB-SEAP or IFNb-TA-SEAP (see above). 293 or RAW264.7 cells (˜2×10^5 cells per 35-mm dish) in log phase were transfected with […] of FuGENE-6 in growth media. After 24 hr, transformed cells were stimulated with CID. After an additional 20 h, supernatants were assayed for SEAP activity as discussed previously (Spencer, D. M., et al., Science 262, 1019-1024 (1993)).
# An inducible CD40 receptor based on chemical-induced dimerization (CID) and patterned after endogenous CD40 activation was produced to specifically target DCs (FIG. 1A). The recombinant CD40 receptor, termed iCD40, was engineered by rt-PCR amplifying the 228 bp CD40 cytoplasmic signaling domain from purified murine bone marrow-derived DCs (>95% CD11c+) and sub-cloning the resulting DNA fragment either downstream (i.e., M-FvFvlsCD40-E) or upstream (M-CD40-FvFvls-E) of tandem copies of the dimerizing drug binding domain, FKBP12(V36) (FIG. 1B). […]
# [2] = biological target: T1, FKBP12(V36) (Homo sapiens, UniProt P62942, F37V); experiment: AP1903 needed in vitro for effective signaling of cells; type: cell-based
# T1 construct: expressed in transfected cells; host or cells: cells transduced with Ad5f35-ihCD40 (human monocyte-derived dendritic cells); inferred, the sentence names no cells
# Protocol: The fixed dose of AP1903 for Injection used in this study is 0.4 mg/kg intravenously infused over 2 hours. The amount of AP1903 needed in vitro for effective signaling of cells is 10-100 nM (1600 Da MW). This equates to 16-160 μg/L or ˜0.016-1.6 mg/kg (1.6-160 μg/kg). Doses up to 1 mg/kg were well-tolerated in the Phase I study of AP1903 described above. Therefore, 0.4 mg/kg may be a safe and effective dose of AP1903 for this Phase I study in combination with BPX-101.
# [3] = cited from earlier work
# [4] = biological target: T2, IL-6 (Homo sapiens, UniProt P05231); conditions: cited from earlier work
# T2 construct: host or cells: patients' endogenous IL-6
# [5] = patients with advanced cancer, Clarke et al.
# T1 sequence (P62942 2-108 F37V): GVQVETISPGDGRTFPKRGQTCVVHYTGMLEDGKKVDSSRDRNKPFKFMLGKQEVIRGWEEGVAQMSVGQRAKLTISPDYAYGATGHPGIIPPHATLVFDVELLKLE
# T2 sequence (P05231 30-212): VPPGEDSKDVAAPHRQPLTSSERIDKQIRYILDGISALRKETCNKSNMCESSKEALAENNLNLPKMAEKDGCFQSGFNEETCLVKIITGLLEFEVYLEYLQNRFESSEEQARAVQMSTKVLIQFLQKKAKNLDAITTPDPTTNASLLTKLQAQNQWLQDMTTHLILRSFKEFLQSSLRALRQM
molecule,measurement,setting,value
CC[C@H](C(=O)N1CCCC[C@H]1C(=O)O[C@H](CCc1ccc(OC)c(OC)c1)c1cccc(OCC(=O)NCC(CNC(=O)COc2cccc([C@@H](CCc3ccc(OC)c(OC)c3)OC(=O)[C@@H]3CCCCN3C(=O)[C@@H](CC)c3cc(OC)c(OC)c(OC)c3)c2)CN(C)C)c1)c1cc(OC)c(OC)c(OC)c1 [AP20187],high drug dose suppression,[1]; iCD40-transfected Jurkat T cells,over 100 nM
same,NF B transcriptional activity,"[1]; increasing AP20187, iCD40 constructs vs control vector M-FvFvls-E",significant upregulation
"CC[C@H](C(=O)N1CCCC[C@H]1C(=O)O[C@H](CCc1ccc(OC)c(OC)c1)c1cccc(OCC(=O)NCCNC(=O)COc2cccc([C@@H](CCc3ccc(OC)c(OC)c3)OC(=O)[C@@H]3CCCCN3C(=O)[C@@H](CC)c3cc(OC)c(OC)c(OC)c3)c2)c1)c1cc(OC)c(OC)c(OC)c1 (relative stereo) [AP1903, 2-Piperidinecarboxylic acid, 1-[(2S)-1-oxo-2-(3,4,5-trimethoxyphenyl)butyl]-, 1,2-ethanediylbis[imino(2-oxo-2,1-ethanediyl)oxy-3,1-phenylene[(1R)-3-(3,4-dimethoxyphenyl)propylidene]]ester, [2S-[1(R*),2R*[S*[S*[1(R*),2R*]]]]]-(9Cl)]","amount needed for effective signaling, converted to dose",[2],0.016 to 1.6 mg/kg
same,amount needed in vitro for effective signaling of cells,[2],10 to 100 nM
same,"amount needed for effective signaling, converted",[2]; 1600 Da MW,16 to 160 µg/L
same,mean Cmax,"[3]; 0.01-1.0 mg/kg dose range, IV over 2 hours, plasma",10 to 1275 ng/mL
same,AP1903 plasma levels versus dose,[3]; 0.01-1.0 mg/kg,directly proportional to dose
same,plasma level as % of maximal concentration,[3]; 0.5 hours post-dose,approximately 18%
same,plasma level as % of maximal concentration,[3]; 2 hours post-dose,~7%
same,plasma level as % of maximal concentration,[3]; 10 hours post-dose,~1%
same,well-tolerated doses,[3]; Phase I study of AP1903,up to 1 mg/kg
B1,hematologic parameters and albumin,"[4]; larger study, cancer-related anemia, cachexia and fatigue, Schuster et al.","increase hemoglobin, hematocrit, mean corpuscular hemoglobin, and albumin"
same,C-reactive protein levels,[4]; [5],decrease in C-reactive protein levels
same,"fatigue, hemoglobin and albumin",[4]; [5],"reverse fatigue, increase hemoglobin and increase albumin"
same,hand grip strength,[4]; [5],trend to increased hand grip strength
